Assay results: patent US20220378907A1, “METHODS FOR TREATING DISEASES” (CHILDREN'S HOSPITAL MEDICAL CENTER, priority 2019, published 2022)

B1: recombinant TNF: rTNFα (Peprotech; 315-01Am, 20 ng/mL) (protein)
chain: LRSSSQNSSDKPVAHVVANHQVEEQLEWLSQRANALLANGMDLKDNQLVVPADGLYLVYSQVLFKGQGCPDYVLLTHTVSRFAISYQEKVNLLSAVKSPCPKDTPEGAELKPWYEPIYLGGVFQLEKGDQLSAEVNLPKYLDFAESGQVYFGVIAL

Columns and labels:
Type in all cases: cell-based, mouse
[1] = tested on: IL-1β production by BMDCs co-cultured with TH0 cells; experiment: Co-culture of BMDCs and effector CD4+ T cells (CD3 Ab), secreted IL-1β by ELISA or immunoblot; conditions: WT BMDCs + WT TH0 cells, IETD 10 μM, 18 h
Method: Cell culture treated plates were coated with αCD3 (5 μg mL^−1) and αCD28 (5 μg mL^−1) for 3-4 h at 37° C. CD4^+CD62L^hi naïve CD4^+ T cells were isolated from splenocytes using a Mojosort naïve CD4 T cell isolation kit according to manufacturer's protocol. Purified naïve T cells were plated in antibody-coated plates with appropriate polarizing conditions for 5 days. T cell were cultured in complete RPMI supplemented with 10% FCS. Cytokine cocktails for in vitro polarization: Thl — IL-12 (10 ng mL^−1, peprotech), IL-2 (50 U mL^−1, peprotech), αIL-4 (10 μg mL^−1, Biolegend); Th17-IL-6 (20 ng mL^−1, peprotech), hTGFβ (5 ng mL^−1, peprotech), αIL-4 (10 μg mL^−1, Biolegend), αIFNγ (10 μg mL^−1, Biolegend), IL-23 (20 ng mL^−1, Biolegend) and IL-1β (20 ng mL^−1, peprotech), Th2− IL-4 (4 ng mL^−1, peprotech), IL-2 (50 U mL^−1, Biolegend), and αIFNγ (10 μg mL^−1, Biolegend), Th0− IL-2 (50 U mL^−1). For co-culture experiments T cells were rested in 10% RPMI supplemented with IL-2 (10 U mL^−1) for 36 hrs before co-culture.
Mouse progenitors were isolated from bone marrow (femurs and tibias). […]
Cells were lysed in 1× RIPA Buffer and protein was quantified using Pierce™ BCA Protein Assay Kit. […] Western blot was develop using SuperSignal™ West Pico PLUS Chemiluminescent Substrate (Thermo Fisher) and ECL signal was recorded on X-Ray Films using a developer (Kodak).

pro-IL-1β in BMDCs = experiment: Co-culture of BMDCs and effector CD4+ T cells, pro-IL-1β by immunoblot or flow cytometry; conditions: WT BMDCs + WT TH0 cells, CD3 Ab, IETD 10 μM, 18 h
Method: 1 million DCs were cultured with 4 million T cells in 12 well plate. DC-T cell interaction was triggered by adding either αCD3ε (αCD3, 200 ng mL^−1) or OVA323-339 as described in the legends. In experiments measuring secreted IL-1β, IL-1R antagonist (50 ng mL^−1) was added 1 hr prior to DC stimulation to block IL-1β consumption. Co-cultures were also pretreated with neutralizing antibodies and inhibitor wherever described. Co-culture experiments were performed in complete RPMI supplemented with 10% FCS. For Western blot analysis of the culture supernatant cells were cultured in 1% FCS containing complete RPMI.
Cells were lysed in 1× RIPA Buffer and protein was quantified using Pierce™ BCA Protein Assay Kit. Cell lysates where boiled in 1× Laemmli buffer at 95° C. for 10 mins. Cell lysates were separated by SDS-PAGE and transferred onto PVDF membranes. Blots were incubated with anti-IL1β [1:1000] (R&D AF-401-SP), anti-caspase8 [1:1000] […] Western blot was develop using SuperSignal™ West Pico PLUS Chemiluminescent Substrate (Thermo Fisher) and ECL signal was recorded on X-Ray Films using a developer (Kodak).
Cells were stained with relevant antibodies for 30 min on ice and washed. […] The stained cells were analyzed with BDLSRII or Novocyte (ACEA biosciences). For cytokine receptor staining, control refers to fluorescence minus one control. Data were analyzed with FlowJo 10 Software.

WT BMDCs = experiment: Stimulation of WT BMDCs with recombinant TNF, intracellular pro-IL-1β by flow cytometry; conditions: recombinant TNFα 20 ng/mL, 6 h
Method: Mouse progenitors were isolated from bone marrow (femurs and tibias). Following RBC lysis, cells were plated at 0.75×10^6 mL^−1 in BMDC media (5% FCS containing complete RPMI+1% rGMCSF (Biolegend, 100 ng mL^−1). Media was replaced on day 2 and day 4 and cells were harvested for experiments on day 5 by gently flushing each well. For sorting of BMDC subpopulations, total BMDC cells were stained with fluorescent antibodies and FACS sorted as shown (FIG. 5g) For retroviral transduction, following RBC lysis cells were plated at 10×10^6 mL^−1 in 2 mL of retroviral supernatant containing […] polybrene. Cells were spinfected at 2500 rpm, 32° C., for 90 minutes, then 3 mL of BMDC media was added to each well and cells were incubated overnight. The next morning, ˜70% of the media was removed from the wells and spinfection was repeated with fresh retroviral supernatant. On day 5 cells were harvested for experiments.
Cells were stained with relevant antibodies for 30 min on ice and washed. For intracellular staining, Foxp3 staining buffer set (eBioscience; 00-5523-00) was used according to manufacturer's protocol. The stained cells were analyzed with BDLSRII or Novocyte (ACEA biosciences). For cytokine receptor staining, control refers to fluorescence minus one control. Data were analyzed with FlowJo 10 Software.

Molecule	mature IL-1β (p17) in the supernatant (immunoblot, FIG. 4d) [1]	production of pro-IL-1β in BMDCs (immunoblot, FIG. 4d) (pro-IL-1β in BMDCs)	synthesis of pro-IL-1β in wild-type BMDCs (FIG. 2k) (WT BMDCs)
IETD	loss of mature IL-1β	did not affect	
B1			drove the synthesis
